Reference: article PMC7026418, “The kinase polypharmacology landscape of clinical PARP inhibitors” (Scientific Reports, 2020)
Like-named read-outs stand apart in the source and are kept apart here.

What was measured:
Assay in all cases: biochemical
Parameters in all cases: DiscoveRx KINOMEscan active site-directed competition binding; percent of control kinase bound to immobilised ligand
DRAK1 = target: T1, DRAK1 (Homo sapiens, UniProt Q9UEE5)
T1 construct: gene STK17A
T1 sequence (Q9UEE5 1-414): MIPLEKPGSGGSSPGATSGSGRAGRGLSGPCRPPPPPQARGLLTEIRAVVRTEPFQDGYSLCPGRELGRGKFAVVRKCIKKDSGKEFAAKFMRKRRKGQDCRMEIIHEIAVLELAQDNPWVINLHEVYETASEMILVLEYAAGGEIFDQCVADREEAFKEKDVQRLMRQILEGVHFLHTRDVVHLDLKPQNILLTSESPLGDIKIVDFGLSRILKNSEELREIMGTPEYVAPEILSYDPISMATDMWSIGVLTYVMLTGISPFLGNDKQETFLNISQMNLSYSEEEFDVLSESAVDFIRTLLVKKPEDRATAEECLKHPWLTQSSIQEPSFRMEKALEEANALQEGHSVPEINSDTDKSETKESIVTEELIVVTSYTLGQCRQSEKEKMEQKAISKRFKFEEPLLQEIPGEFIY

FGFR2 = FGFR2 (Homo sapiens, UniProt P21802)
KIT(D816H) = KIT(D816H) (Homo sapiens, UniProt P10721, D816H)
PHKG1 = PHKG1 (Homo sapiens, UniProt Q16816)
PIK3CA(H1047L) = PIK3CA(H1047L) (Homo sapiens, UniProt P42336, H1047L)
RIPK5 = target: T2, RIPK5 (Homo sapiens, UniProt Q6XUX3)
T2 construct: gene DSTYK
T2 sequence (Q6XUX3 1-929): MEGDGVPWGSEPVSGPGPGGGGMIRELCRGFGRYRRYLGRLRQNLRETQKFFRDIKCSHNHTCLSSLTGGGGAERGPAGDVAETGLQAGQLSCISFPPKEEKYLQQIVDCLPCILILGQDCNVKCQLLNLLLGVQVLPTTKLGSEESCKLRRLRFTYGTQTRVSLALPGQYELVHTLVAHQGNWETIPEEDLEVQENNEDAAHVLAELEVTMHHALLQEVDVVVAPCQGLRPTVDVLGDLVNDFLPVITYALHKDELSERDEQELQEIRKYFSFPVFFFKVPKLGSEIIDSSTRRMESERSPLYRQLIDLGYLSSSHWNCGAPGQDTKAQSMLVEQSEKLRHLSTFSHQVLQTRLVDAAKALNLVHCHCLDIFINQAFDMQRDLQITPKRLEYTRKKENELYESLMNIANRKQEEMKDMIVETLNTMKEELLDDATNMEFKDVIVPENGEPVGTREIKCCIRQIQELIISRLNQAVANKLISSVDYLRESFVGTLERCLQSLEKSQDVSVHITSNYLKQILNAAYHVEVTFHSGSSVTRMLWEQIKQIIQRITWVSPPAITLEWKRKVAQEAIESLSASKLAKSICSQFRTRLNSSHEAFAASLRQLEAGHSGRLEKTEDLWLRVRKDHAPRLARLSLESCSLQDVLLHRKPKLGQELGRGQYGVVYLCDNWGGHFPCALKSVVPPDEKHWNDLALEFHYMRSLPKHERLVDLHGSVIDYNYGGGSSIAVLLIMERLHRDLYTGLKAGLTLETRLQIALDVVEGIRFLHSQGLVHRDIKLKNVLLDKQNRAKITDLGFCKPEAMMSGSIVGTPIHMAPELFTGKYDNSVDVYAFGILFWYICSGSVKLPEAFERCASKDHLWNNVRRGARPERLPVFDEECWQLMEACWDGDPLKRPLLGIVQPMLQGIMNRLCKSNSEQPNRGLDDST

[1] = target: T3, RSK1(Kin.Dom.2-C-terminal) (Homo sapiens, UniProt Q15418)
T3 construct: gene RPS6KA1; Kin.Dom.2-C-terminal

[2] = read-out: Talazoparib (BMN 673) / %Ctrl @ 10000nM
[3] = read-out: Olaparib / %Ctrl @ 10000nM
[4] = read-out: Rucaparib / %Ctrl @ 10000nM, binding competition, % of control
[5] = read-out: Niraparib (MK-4827) / %Ctrl @ 10000nM

Sequence of PHKG1 (Q16816 whole entry): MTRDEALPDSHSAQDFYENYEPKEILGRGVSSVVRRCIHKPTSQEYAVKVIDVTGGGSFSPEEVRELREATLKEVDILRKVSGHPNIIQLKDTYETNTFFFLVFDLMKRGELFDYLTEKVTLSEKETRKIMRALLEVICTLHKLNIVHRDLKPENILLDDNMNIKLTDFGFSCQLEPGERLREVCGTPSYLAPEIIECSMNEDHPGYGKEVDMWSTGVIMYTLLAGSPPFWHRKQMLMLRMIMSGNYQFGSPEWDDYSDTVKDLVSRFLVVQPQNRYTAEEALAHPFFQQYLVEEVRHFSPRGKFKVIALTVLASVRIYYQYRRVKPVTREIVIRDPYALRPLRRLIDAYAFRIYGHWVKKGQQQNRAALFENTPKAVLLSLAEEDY
Sequence of FGFR2 (P21802 whole entry): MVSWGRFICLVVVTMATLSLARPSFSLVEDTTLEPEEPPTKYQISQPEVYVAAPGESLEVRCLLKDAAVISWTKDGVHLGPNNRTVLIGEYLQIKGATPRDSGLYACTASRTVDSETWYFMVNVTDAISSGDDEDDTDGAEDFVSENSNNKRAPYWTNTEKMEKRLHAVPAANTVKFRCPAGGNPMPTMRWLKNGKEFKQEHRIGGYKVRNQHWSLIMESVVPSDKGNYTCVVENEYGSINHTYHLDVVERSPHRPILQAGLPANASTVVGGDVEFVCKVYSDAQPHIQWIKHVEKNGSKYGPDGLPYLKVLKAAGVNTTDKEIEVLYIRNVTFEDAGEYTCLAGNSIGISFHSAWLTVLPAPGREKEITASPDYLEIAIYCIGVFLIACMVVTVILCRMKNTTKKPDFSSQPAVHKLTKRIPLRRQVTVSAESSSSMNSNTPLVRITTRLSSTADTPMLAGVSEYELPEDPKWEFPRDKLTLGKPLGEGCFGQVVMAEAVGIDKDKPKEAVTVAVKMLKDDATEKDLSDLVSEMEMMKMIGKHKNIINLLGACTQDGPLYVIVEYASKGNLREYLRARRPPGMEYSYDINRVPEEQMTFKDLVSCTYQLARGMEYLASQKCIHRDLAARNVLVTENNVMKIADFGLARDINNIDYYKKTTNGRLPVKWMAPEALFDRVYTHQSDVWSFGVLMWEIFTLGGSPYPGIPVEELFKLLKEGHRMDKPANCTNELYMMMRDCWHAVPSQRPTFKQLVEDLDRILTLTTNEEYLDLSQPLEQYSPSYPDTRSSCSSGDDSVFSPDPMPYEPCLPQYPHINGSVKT
Sequence of PIK3CA(H1047L) (P42336 whole entry H1047L): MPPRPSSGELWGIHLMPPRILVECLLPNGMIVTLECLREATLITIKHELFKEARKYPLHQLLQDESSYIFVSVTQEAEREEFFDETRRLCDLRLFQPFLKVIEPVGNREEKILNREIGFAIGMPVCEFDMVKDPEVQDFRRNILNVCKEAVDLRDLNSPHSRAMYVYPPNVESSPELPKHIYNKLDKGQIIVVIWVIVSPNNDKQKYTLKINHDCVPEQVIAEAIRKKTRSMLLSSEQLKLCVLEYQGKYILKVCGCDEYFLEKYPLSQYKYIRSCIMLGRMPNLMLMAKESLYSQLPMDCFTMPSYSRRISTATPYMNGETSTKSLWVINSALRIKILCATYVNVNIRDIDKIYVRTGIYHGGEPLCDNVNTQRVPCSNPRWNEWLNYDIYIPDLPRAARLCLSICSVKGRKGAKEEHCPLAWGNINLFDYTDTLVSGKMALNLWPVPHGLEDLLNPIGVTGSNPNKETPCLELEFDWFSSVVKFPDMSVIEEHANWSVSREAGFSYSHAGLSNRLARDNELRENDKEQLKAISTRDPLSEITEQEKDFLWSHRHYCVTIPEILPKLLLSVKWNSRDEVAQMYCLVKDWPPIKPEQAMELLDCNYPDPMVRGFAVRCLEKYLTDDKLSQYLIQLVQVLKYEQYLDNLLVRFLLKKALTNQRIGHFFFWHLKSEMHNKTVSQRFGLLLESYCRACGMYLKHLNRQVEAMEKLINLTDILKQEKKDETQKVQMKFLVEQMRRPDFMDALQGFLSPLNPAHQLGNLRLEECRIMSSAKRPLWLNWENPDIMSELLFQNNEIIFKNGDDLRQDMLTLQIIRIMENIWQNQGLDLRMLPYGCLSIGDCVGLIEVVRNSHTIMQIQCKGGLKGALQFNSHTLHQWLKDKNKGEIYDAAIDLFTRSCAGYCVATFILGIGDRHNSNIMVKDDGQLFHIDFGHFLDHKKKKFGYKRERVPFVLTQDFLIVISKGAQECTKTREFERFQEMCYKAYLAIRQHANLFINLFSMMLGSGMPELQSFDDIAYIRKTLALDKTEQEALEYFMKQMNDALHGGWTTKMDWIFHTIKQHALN
T3 sequence (Q15418 whole entry): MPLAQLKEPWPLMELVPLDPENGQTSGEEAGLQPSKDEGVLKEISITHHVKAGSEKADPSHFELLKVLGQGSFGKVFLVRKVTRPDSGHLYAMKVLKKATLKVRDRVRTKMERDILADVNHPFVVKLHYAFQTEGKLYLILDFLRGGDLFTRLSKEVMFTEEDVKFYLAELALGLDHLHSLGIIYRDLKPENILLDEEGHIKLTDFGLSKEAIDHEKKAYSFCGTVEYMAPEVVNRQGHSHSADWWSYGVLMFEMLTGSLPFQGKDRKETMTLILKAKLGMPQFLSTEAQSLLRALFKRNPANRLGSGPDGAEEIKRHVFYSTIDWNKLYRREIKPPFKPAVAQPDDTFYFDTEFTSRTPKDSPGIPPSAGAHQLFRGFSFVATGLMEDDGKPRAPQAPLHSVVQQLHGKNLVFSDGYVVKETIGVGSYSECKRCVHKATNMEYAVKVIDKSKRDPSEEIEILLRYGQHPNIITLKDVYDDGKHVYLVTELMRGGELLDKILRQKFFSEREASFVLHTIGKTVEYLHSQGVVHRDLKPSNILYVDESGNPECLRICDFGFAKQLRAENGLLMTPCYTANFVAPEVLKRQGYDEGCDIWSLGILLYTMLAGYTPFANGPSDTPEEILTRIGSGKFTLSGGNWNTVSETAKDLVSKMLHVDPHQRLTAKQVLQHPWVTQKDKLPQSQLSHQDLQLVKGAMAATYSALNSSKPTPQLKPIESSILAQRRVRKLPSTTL
Sequence of KIT(D816H) (P10721 whole entry D816H): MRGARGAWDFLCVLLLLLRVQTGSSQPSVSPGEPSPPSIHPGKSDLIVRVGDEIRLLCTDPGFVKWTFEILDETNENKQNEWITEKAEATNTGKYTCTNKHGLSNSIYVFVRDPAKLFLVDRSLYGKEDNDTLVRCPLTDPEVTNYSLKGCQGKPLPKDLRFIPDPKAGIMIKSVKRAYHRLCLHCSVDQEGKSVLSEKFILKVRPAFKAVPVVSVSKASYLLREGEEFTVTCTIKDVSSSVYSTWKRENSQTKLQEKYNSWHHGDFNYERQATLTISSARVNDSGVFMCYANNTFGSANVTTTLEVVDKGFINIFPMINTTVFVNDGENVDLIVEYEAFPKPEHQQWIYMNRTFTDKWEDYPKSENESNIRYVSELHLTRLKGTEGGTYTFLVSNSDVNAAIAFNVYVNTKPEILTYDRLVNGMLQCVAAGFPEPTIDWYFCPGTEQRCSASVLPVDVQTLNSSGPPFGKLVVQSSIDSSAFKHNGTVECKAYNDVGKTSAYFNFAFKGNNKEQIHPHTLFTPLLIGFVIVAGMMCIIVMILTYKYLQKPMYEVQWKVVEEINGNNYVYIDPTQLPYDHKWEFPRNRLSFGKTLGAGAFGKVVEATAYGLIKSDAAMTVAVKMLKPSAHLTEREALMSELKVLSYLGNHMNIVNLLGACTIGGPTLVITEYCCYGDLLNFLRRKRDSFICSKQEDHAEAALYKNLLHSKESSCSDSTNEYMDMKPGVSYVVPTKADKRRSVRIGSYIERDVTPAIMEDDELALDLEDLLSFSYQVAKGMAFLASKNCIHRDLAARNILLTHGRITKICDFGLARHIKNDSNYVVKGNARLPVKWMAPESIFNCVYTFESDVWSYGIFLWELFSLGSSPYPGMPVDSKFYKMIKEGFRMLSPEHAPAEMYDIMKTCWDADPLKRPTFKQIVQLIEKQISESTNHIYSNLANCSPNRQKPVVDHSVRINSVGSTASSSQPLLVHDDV

## Cn1ncnc1[C@H]1c2n[nH]c(=O)c3cc(F)cc(c23)N[C@@H]1c1ccc(F)cc1 [Talazoparib]
DRAK1; [2]
  percent of control binding at 10 µM: 100%
FGFR2; [2]
  percent of control binding at 10 µM: 100%
KIT(D816H); [2]
  percent of control binding at 10 µM: 100%
PHKG1; [2]
  percent of control binding at 10 µM: 90%
PIK3CA(H1047L); [2]
  percent of control binding at 10 µM: 100%
RIPK5; [2]
  percent of control binding at 10 µM: 100%
[1]; [2]
  percent of control binding at 10 µM: 100%

## O=C(c1cc(Cc2n[nH]c(=O)c3ccccc23)ccc1F)N1CCN(C(=O)C2CC2)CC1 [Olaparib]
DRAK1; [3]
  percent of control binding at 10 µM: 95%
FGFR2; [3]
  percent of control binding at 10 µM: 100%
KIT(D816H); [3]
  percent of control binding at 10 µM: 96%
PHKG1; [3]
  percent of control binding at 10 µM: 100%
PIK3CA(H1047L); [3]
  percent of control binding at 10 µM: 87%
RIPK5; [3]
  percent of control binding at 10 µM: 100%
[1]; [3]
  percent of control binding at 10 µM: 76%

## CNCc1ccc(-c2[nH]c3cc(F)cc4c3c2CCNC4=O)cc1 [Rucaparib]
DRAK1; [4]
  percent of control binding at 10 µM: 14%
FGFR2; [4]
  percent of control binding at 10 µM: 99%
KIT(D816H); [4]
  percent of control binding at 10 µM: 82%
PHKG1; [4]
  percent of control binding at 10 µM: 87%
PIK3CA(H1047L); [4]
  percent of control binding at 10 µM: 87%
RIPK5; [4]
  percent of control binding at 10 µM: 96%
[1]; [4]
  percent of control binding at 10 µM: 70%

## NC(=O)c1cccc2cn(-c3ccc([C@@H]4CCCNC4)cc3)nc12 [Niraparib]
DRAK1; [5]
  percent of control binding at 10 µM: 26%
FGFR2; [5]
  percent of control binding at 10 µM: 100%
KIT(D816H); [5]
  percent of control binding at 10 µM: 94%
PHKG1; [5]
  percent of control binding at 10 µM: 100%
PIK3CA(H1047L); [5]
  percent of control binding at 10 µM: 100%
RIPK5; [5]
  percent of control binding at 10 µM: 89%
[1]; [5]
  percent of control binding at 10 µM: 93%
